Experimental data: publication PMC3685188 (Chemical Research in Toxicology, 2013)
Entries after “also recorded” stand apart in the source; their conditions may differ.

Experiments:
hPXR = hPXR (Homo sapiens, UniProt O75469); conditions: LCT ∼[…] for non-CYPs; value = assay target as listed
rPBR = rPBR (Rattus norvegicus, UniProt P16257); test: MP_rPBR translocator protein; assay type: binding
PTGS2/COX2 = PTGS2/COX2 (Ovis aries, UniProt P79208); test: PTGS2/COX2 enzymatic inhibition; assay type: biochemical
PTGS1/COX1 = PTGS1/COX1 (Ovis aries, UniProt P05979); test: PTGS1/COX1 enzymatic inhibition; assay type: biochemical
MMPs = test: MMP assays taken together; assay type: biochemical
caspases = test: caspase assays taken together; assay type: biochemical
kinases and phosphatases = test: kinase and phosphatase assays taken together; assay type: biochemical
hM5 = hM5 (Homo sapiens, UniProt P08912); test: GPCR_hM5 muscarinic receptor binding; conditions: LCT ∼[…] for non-CYPs; value = assay target as listed
Sequence of hM5 (P08912 whole entry): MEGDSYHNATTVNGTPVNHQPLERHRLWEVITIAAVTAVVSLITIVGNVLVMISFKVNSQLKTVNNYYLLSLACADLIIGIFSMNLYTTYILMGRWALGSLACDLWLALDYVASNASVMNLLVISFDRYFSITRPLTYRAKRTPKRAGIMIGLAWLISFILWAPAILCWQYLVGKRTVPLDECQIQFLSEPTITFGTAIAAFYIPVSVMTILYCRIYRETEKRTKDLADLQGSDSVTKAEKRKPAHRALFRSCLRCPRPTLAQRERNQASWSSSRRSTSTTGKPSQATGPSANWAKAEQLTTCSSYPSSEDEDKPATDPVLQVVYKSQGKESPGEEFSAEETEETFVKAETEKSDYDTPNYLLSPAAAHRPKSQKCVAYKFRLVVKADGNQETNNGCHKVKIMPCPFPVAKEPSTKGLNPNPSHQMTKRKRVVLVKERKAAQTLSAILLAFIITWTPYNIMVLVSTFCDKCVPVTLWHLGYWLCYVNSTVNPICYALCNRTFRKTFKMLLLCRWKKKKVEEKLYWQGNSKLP

hM3 = hM3 (Homo sapiens, UniProt P20309); test: GPCR_hM3 muscarinic receptor binding; conditions: LCT ∼[…] for non-CYPs; value = assay target as listed
[1] = molecular target: gMPeripheral_NonSelective; test: GPCR_gMPeripheral_NonSelective binding; parameters: species or system guinea pig; conditions: LCT ∼[…] for non-CYPs; value = assay target as listed
adenosine receptors = assay type: binding
hPTPN4 = hPTPN4 (Homo sapiens, UniProt P29074); test: ENZ_hPTPN4 phosphatase inhibition; assay type: biochemical; conditions: LCT ∼[…] for non-CYPs; value = assay target as listed
Sequence of hPTPN4 (P29074 whole entry): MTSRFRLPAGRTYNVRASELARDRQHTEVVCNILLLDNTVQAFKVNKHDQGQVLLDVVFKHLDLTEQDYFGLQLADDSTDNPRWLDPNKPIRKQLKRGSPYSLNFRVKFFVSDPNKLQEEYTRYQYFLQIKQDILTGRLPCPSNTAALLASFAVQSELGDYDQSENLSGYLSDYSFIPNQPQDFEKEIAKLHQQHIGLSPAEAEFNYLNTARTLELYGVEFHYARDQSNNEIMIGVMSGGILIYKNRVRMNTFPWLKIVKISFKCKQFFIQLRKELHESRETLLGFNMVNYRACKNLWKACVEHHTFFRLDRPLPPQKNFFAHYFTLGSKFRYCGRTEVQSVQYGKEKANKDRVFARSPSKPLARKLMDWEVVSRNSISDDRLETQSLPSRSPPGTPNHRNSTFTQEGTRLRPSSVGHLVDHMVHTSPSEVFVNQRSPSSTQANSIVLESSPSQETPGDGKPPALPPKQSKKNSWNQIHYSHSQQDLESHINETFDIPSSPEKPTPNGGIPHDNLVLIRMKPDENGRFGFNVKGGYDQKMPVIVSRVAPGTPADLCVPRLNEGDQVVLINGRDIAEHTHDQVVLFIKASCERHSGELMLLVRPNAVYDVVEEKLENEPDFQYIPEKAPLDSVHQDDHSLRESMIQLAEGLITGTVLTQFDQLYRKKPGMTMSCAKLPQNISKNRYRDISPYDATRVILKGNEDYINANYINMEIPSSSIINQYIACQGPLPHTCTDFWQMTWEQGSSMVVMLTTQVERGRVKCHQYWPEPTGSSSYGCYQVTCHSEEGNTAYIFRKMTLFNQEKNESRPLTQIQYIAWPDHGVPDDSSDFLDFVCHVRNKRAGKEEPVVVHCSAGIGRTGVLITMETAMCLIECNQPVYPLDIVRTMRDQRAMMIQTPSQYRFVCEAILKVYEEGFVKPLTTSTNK

hPTPN9 = hPTPN9 (Homo sapiens, UniProt P43378); test: ENZ_hPTPN9 phosphatase inhibition; assay type: biochemical; conditions: LCT ∼[…] for non-CYPs; value = assay target as listed
GPCRs = test: GPCR ligand-binding assays taken together
mERa = mERa (Mus musculus, UniProt P19785); assay type: binding
Sequence of mERa (P19785 whole entry): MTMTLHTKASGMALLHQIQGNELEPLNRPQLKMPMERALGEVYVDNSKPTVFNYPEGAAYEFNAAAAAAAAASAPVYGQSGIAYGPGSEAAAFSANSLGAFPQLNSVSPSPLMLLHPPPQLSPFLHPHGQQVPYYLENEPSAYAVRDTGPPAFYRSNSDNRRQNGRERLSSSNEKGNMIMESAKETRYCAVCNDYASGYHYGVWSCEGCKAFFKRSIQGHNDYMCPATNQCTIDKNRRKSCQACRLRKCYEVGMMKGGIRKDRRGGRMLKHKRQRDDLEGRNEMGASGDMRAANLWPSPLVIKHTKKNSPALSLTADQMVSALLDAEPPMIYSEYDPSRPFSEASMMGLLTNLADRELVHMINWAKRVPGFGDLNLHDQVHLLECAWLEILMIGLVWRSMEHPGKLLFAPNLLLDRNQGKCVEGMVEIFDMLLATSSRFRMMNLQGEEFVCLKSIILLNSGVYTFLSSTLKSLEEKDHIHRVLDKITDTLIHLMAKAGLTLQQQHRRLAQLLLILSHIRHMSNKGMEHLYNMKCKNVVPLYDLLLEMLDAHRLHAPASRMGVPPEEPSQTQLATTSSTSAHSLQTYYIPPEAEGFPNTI

hCYP2C19 = hCYP2C19 (Homo sapiens, UniProt P33261)
hPBR = hPBR (Homo sapiens, UniProt P30536); test: MP_hPBR translocator protein; assay type: binding
Sequence of hPBR (P30536 whole entry): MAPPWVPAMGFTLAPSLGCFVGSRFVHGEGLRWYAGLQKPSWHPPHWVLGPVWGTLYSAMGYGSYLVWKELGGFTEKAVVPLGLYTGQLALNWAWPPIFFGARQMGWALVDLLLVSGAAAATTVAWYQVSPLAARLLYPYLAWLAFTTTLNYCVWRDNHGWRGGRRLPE

hCYP2C9 = hCYP2C9 (Homo sapiens, UniProt P11712)
Sequence of hCYP2C9 (P11712 whole entry): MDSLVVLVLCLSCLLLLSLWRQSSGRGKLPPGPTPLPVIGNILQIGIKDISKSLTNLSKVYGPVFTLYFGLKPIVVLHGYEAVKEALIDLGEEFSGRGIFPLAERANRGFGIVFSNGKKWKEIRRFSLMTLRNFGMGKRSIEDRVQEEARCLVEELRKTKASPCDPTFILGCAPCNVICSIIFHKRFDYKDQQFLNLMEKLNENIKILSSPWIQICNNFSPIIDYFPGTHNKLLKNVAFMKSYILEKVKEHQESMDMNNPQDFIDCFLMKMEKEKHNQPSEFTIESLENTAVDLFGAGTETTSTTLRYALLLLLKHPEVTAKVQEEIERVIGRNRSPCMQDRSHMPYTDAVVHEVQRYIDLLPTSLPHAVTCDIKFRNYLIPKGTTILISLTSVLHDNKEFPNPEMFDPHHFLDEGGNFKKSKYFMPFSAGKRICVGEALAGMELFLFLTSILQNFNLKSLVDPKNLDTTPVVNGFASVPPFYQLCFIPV

hAdo1 = hAdo1 (Homo sapiens, UniProt P30542); assay type: binding
[2] = test system: nonselective bAdo receptor; test: nonselective bAdo receptor binding; parameters: species or system bovine
hAdo2a = hAdo2a (Homo sapiens, UniProt P29274)
Sequence of hAdo2a (P29274 whole entry): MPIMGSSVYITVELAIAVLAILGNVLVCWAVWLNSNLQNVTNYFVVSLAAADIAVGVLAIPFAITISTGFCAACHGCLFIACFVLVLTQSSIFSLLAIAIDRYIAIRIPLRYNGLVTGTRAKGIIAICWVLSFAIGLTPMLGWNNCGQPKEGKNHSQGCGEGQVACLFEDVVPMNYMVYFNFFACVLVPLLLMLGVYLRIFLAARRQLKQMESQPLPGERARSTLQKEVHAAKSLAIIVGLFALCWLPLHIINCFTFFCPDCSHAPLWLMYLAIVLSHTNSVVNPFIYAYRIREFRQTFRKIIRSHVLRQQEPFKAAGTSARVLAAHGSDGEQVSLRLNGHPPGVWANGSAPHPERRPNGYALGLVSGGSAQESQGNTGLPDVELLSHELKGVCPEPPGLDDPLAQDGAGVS

hER = hER (Homo sapiens, UniProt P03372); assay type: binding
Sequence of hER (P03372 whole entry): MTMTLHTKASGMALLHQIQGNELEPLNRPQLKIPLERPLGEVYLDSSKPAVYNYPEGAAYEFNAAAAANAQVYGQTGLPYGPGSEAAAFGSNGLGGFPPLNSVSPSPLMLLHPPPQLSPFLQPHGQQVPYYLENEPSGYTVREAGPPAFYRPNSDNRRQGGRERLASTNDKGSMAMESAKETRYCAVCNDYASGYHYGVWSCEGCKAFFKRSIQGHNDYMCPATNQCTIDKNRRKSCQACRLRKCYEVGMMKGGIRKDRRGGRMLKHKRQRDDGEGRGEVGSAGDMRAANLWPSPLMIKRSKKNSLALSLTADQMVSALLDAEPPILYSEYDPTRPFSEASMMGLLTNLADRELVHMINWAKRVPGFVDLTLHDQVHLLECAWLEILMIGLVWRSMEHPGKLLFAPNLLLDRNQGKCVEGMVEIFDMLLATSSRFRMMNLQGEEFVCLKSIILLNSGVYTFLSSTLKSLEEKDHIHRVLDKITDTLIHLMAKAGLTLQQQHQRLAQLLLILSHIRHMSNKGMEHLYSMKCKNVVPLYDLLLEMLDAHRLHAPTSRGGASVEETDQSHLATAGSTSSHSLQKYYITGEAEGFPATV

bER = bER (Bos taurus, UniProt P49884); assay type: binding, bovine
Sequence of bER (P49884 whole entry): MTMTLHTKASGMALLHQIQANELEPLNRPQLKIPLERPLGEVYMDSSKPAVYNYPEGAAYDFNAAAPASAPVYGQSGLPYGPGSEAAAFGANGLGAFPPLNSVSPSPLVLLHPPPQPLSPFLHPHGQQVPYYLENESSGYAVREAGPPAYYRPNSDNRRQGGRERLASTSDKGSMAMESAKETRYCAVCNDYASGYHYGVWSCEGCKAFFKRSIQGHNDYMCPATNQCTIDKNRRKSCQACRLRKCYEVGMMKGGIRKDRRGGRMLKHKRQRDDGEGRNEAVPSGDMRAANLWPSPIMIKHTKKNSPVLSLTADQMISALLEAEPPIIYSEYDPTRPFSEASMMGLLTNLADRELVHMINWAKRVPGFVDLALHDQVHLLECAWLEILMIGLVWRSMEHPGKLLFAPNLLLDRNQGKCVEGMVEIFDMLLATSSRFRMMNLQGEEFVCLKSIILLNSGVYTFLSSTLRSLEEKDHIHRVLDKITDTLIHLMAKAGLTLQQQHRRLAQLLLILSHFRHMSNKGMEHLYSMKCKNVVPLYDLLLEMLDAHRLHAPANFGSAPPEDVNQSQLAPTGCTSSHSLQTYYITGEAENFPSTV

[3] = LCT ∼[…] for non-CYPs, value = assay target as listed

Sequence of hPXR (O75469 whole entry): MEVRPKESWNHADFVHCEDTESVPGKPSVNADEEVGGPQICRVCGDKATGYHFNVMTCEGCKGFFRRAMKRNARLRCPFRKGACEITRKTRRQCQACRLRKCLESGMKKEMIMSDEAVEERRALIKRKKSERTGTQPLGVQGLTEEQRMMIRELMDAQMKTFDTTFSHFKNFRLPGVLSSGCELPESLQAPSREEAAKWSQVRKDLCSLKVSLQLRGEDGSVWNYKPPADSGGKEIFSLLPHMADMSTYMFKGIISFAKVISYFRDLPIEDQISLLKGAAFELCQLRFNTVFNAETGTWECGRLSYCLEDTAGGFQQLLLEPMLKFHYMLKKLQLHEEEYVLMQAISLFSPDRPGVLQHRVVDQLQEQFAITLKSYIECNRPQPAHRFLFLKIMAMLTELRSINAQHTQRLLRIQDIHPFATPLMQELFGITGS
Sequence of rPBR (P16257 whole entry): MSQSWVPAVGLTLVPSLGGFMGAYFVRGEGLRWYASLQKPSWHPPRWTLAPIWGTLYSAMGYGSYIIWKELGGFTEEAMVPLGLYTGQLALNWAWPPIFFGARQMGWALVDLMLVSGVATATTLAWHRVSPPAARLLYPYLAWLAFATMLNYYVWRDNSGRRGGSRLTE

In the case of `CC(C)N(C(=O)COc1nnc(C(F)(F)F)s1)c1ccc(F)cc1` [flufenacet], the “AC50 at the lowest concentration tested (LCT)” value (shortened to “AC50 … (LCT)”) (hPXR) is reported as “NR_hPXR” and the “AC50 … (LCT)” value (rPBR; [3]) is reported as “MP_rPBR”.

With `CCN(CC)C(=O)C(C)Oc1cccc2ccccc12` (stereo not shown) [napropamide] the “AC50 … (LCT)” value (hPXR) was “NR_hPXR”.

In the case of tannic acid, the “effect on the assay, in words” value (PTGS2/COX2) is reported as “also inhibited”, the “effect on the assay, in words” value (PTGS1/COX1) is reported as “also inhibited” and the “effect on the MMP assays, in words” value (MMPs) is reported as “also inhibited”. The “effect on the caspase assays, in words” value (caspases) was “also inhibited”.

For metiram, the “effect on kinase and phosphatase assays, in words” value (kinases and phosphatases) was “affected multiple kinase and phosphatase assays”.

`c1ccc(C(O[C@@H]2CCCN(CCc3ccc4c(c3)OCO4)C2)c2ccccc2)cc1` [zamifenacin (pharma), zamifenacin] was tested, and the “AC50 … (LCT)” value (hM5) was “hM3/5”, the “AC50 … (LCT)” value (hM3) was “hM3” and the “AC50 … (LCT)” value [1] was “GPCR_gMPeripheral_NonSelective”.

`COC(=O)c1cccc(C)c1S(=O)(=O)NC(=O)Nc1nc(OCC(F)(F)F)nc(N(C)C)n1` [triflusulfuron-methyl] was tested, and the “effect on the adenosine receptor binding assays, in words” value (adenosine receptors) was “inhibited”.

For `S=C([S-])NCCNC(=S)[S-].[Mn+2]` [maneb], the “AC50 … (LCT)” value (hPTPN4) was “ENZ_hPTPN9/4”, the “AC50 … (LCT)” value (hPTPN9) was “ENZ_hPTPN9/4” and the “effect on kinase and phosphatase assays, in words” value (kinases and phosphatases) was “affected multiple kinase and phosphatase assays”.

In the case of phenylmercuric acetate, the “effect on GPCR ligand-binding activities, in words” value (GPCRs) is reported as “broadly disrupted”.

With `CCC(C)(c1ccc(O)cc1)c1ccc(O)cc1` [bisphenol B] the “AC50 … (LCT)” value (mERa; [3]) was “NR_mERa”.

`CO/C=C(/C(=O)OC)c1ccccc1COc1cccc(C(F)(F)F)n1` [Picoxystrobin] was tested, and the “effect on the assay, in words” value (hCYP2C19) was “affected”, the “effect on the assay, in words” value (hPBR) was “affected” and the “effect on the assay, in words (AC50 level)” value (rPBR) was “submicromolar”. For the same molecule, the “effect on the assay, in words” value (hCYP2C9) was “affected”.

In the case of `COC(=O)N(OC)c1ccccc1COc1ccn(-c2ccc(Cl)cc2)n1` [pyraclostrobin], the “AC50 … (LCT)” value (hPXR) is reported as “NR_hPXR”.

For `Cn1c(=O)c2c(ncn2C)n(C)c1=O` [Caffeine, caffeine], the “effect on the assay, in words” value (hAdo1) was “inhibited”, the “effect on the adenosine receptor binding assays, in words” value (adenosine receptors) was “inhibited; also recorded: relatively selective effect” and the “effect on the assay, in words” value [2] was “inhibited”. For the same molecule, the “effect on the assay, in words” value (hAdo2a) was “inhibited”.

In the case of `CCOP(=O)(NC(C)C)Oc1ccc(SC)c(C)c1` (stereo not shown) [fenamiphos], the “AC50 … (LCT)” value (hPXR) is reported as “NR_hPXR”.

For tributyltin, the “effect on GPCR ligand-binding activities, in words” value (GPCRs) was “broadly disrupted”.

With `OC[C@H]1O[C@@H]2O[C@H]3[C@H](O)[C@@H](O)[C@@H](O[C@H]4[C@H](O)[C@@H](O)[C@@H](O[C@H]5[C@H](O)[C@@H](O)[C@@H](O[C@H]6[C@H](O)[C@@H](O)[C@@H](O[C@H]7[C@H](O)[C@@H](O)[C@@H](O[C@H]1[C@H](O)[C@H]2O)O[C@@H]7CO)O[C@@H]6CO)O[C@@H]5CO)O[C@@H]4CO)O[C@@H]3CO` [α-cyclodextrin] the “effect on the assay, in words” value (mERa) was “inhibited”, the “effect on the assay, in words” value (hER) was “inhibited” and the “effect on the assay, in words” value (bER) was “inhibited”.
